Data from patent US9820483B2, “Microbial composition” (Rohm and Haas Company, priority 2011, dated 2017).

Legend:
S. aureus ATCC 6538 = assay: Synergy of terpinyl alcohols with phenolic compounds in water, 15 seconds contact, plate count log reduction; format: cell-based, Staphylococcus aureus; conditions: 0.1% alone
Experimental: Liquid actives were used directly. Solid actives were dissolved in alcohol and a 50% stock was made.
The culture was grown overnight in Tryptone soya agar. It was suspended in saline (0.85% NaCl) to a con. of 1.5×10^8-5×10^8 cells/ml
To 9 ml water the actives were added to give the desired concentration. 1 ml of the culture was added and mixed. After 15 seconds contact 1 ml aliquot was removed and added to a neutraliser and kept for 5 minutes. A control of untreated cells was similarly processed. It was then diluted and plated. The plates were incubated at 37° C. for 24 hours. The colonies on the plates were counted. The counts were converted to log10. The log. no. of survivors was determined and log reduction calculated.

[1] = tested on: Escherichia coli (E. coli—ATCC #10536); assay: Automated assessment of efficacy in model surfactant base (2.85% sodium cocoyl glycinate + 1.85% sodium lauroamphoacetate, pH 10), 15 seconds exposure, delta OD450/OD590 in D/E quench; format: cell-based
Experimental: Solutions were prepared such that the concentrations of the surfactant components and test actives were 1.1× the final desired concentration in order to allow for dilution with the bacterial inoculum in the test. The solutions were manually adjusted to pH 10.0 by dropwise addition of sodium hydroxide solution, as measured with a pH meter at ambient temperature.
Tests were conducted using standard microtiter plate assays using an automated liquid handling system. 270 μl of the surfactant test solution was pipetted into each well of the microtitre plate and 30 μl of the bacterial suspension was then added. After exactly 15 seconds of bacterial exposure, a 30 μl volume of bacterial cells was withdrawn and transferred to 270 μl of D/E quench solution. After 5 minutes in the D/E quench, the optical density (OD) was measured for each plate in turn at two specific wavelengths (450 nm and 590 nm). These provide a dual check of antimicrobial activity, as the OD450 reading is specific for the yellow colour of D/E quench when bacterial growth is observed, whereas OD590 is specific for the initial purple colour of the D/E quench which is retained if no bacterial growth is observed. After the time zero OD measurements, plates were then incubated at 37° C. overnight (16 hours) before repeating the OD measurements. Delta OD values were calculated by subtracting […]. Bacterial growth is observed as an increase in OD450 and a decrease in ΔOD590. To identify antibacterially efficacious systems (those preventing appreciable bacterial growth after incubation), the following threshold changes in OD readings have been adopted: if (1). OD450 increases by less than 0.2 absorbance unit on incubation and (2). OD590 decreases by less than 0.35 unit on incubation. Conversely, where OD450 increases by more than 0.2 AU and OD590 decreases by more than 0.35 unit after incubation, corresponding to a colour shift from purple to yellow, the test system allows bacterial growth and is not deemed efficacious. Four replicate measurements in the same plate have been made for each test system. The number of replicate wells showing either bacterial growth or no growth is also readily assessed by eye by following the colour change.
Dose responses for individual components and binary mixtures of actives at a fixed concentration ratio were generated by sequential dilution of liquors with further surfactant solution to obtain a series of endpoints.
In some selected cases, the combinations were also tested at the weight ratio 1:1.
The method used was the same as in the above Table.

[2] = tested on: Escherichia coli (10536 strain); assay: Antimicrobial efficacy in water, 15 seconds contact, mean bacterial survival NMBS on TSA plates; format: cell-based; conditions: E. coli, 15 s
Experimental: Antimicrobial efficacy is tested against a representative pathogenic bacterial organism, Gram negative Escherichia coli. Concentrations of actives are expressed in terms of the percentage weight/volume (% w/v) throughout the following Examples. […] Here, OD620 indicates the absorbance of a sample in a cuvette of 1.0 cm path length at a wavelength of 620 nm. This bacterial stock was used for assaying against antimicrobial actives (in triplicate). The following assay describes the testing of 8 materials using 6 dilutions across half of a 96-well micro titre plate (MTP). […] 1M solutions of the test actives were prepared in dimethylsulphoxide (DMSO). […] This MTP was labelled as the “Screening plate”. […] The composition of the neutralising solution was as follows: pancreatic digest of casein, 5.0 g/L; […] 270 μl of tryptone diluent solution was added to all the remaining wells of the Dilution MTP (columns 2-6). […] After a contact time of 15 seconds, the mixtures were quenched by transferring 30 μl volumes of the mixtures into the 270 μl D/E neutralising solution in the prepared dilution plate, using aspiration to mix. […] Mean bacterial survival numbers NMBS (expressed in Log CFU/ml) are obtained by first determining the segment of the TSA plate where the number of bacterial colonies is countable. From the colony number in this segment. NMBS is calculated by the formula: […] DF may range from 1 for the quench, to 6 for the highest dilution). The factor 100/3 is a conversion factor from the volume of the inocula spot to one milliliter. Every assay test was performed in triplicate. The reported mean bacterial survival results are the average of such a triplet, the error is the corresponding standard deviation. […] Such a count of about 7 is generally observed when bacteria are exposed to non-biocidal materials.

Compound | Log reduction S. aureus ATCC 6538 (S. aureus ATCC 6538) | MBC ([1]; Escherichia coli, ATCC10536, 15 s, in 2.85% sodium cocoyl glycinate + 1.85% sodium lauroamphoacetate solution at pH 10, E. coli, read-out: MBC) [µg/mL] | No. of replicates showing growth (out of 4) ([1]; single active at 0.3% w/v) | Δ OD 590 nm = OD590 (time = 16 hours) − OD590 (time zero), Mean ([1]; single active at 0.3% w/v) | ΔOD 450 nm = OD450 (time = 16 hours) − OD450 (time zero), Mean ([1]; single active at 0.3% w/v) | No. of replicates showing growth (out of 4) ([1]; single active at 0.5% w/v) | Δ OD 590 nm = OD590 (time = 16 hours) − OD590 (time zero), Mean ([1]; single active at 0.5% w/v) | ΔOD 450 nm = OD450 (time = 16 hours) − OD450 (time zero), Mean ([1]; single active at 0.5% w/v) | No. of replicates showing growth (out of 4) ([1]; single active at […] w/v) | Δ OD 590 nm = OD590 (time = 16 hours) − OD590 (time zero), Mean ([1]; single active at […] w/v) | ΔOD 450 nm = OD450 (time = 16 hours) − OD450 (time zero), Mean ([1]; single active at […] w/v) | NMBS ([2]; 0.3% w/v alone) [log CFU/ml] | NMBS ([2]; 0.4% w/v alone) [log CFU/ml] | NMBS ([2]; […] w/v alone) [log CFU/ml] | MBC ([2]; component alone, in water)
CC=Cc1ccccc1O [2-propenylphenol] | 1.92 | – | – | – | – | – | – | – | – | – | – | – | – | – | –
C=C(C)C1CCC(C)CC1O (stereo not drawn) [isopulegol, 5-methyl-2-(prop-1-en-2-yl)cyclohexanol] | – | > 5000 | 4 | 0.61 | −0.49 | 2 | 0.42 | −0.09 | 4 | 0.59 | −0.54 | 0 | 0 | 7.77 | 0.3 % (w/v)
